Patent US20230255943A1, “MMP-9 AND MMP-12 INHIBITION FOR TREATING SPINAL CORD INJURY OR RELATED INJURY TO NEUROLOGICAL TISSUE” (The University of Birmingham, priority 2020, published 2023)
Entries after “also recorded” stand apart in the source; their conditions may differ. Structures can show the parent of a compound that is named as a salt.

Legend:
[1] = tested on: mice with DC crush injury; test: Spinal cord water content (oedema) after DC crush injury in mice; format: in vivo, mouse; details: for spinal cord water content, comparison of MMP inhibitors (FIG. 4) / spinal cord water content: 3 days after DC injury; for spinal cord water content, comparison of MMP inhibitors (FIG. 4): doses and routes of Table 1, vs DC+vehicle
Method: For oral delivery of AZD1236, n=6 adult male C57BL6 mice/group (Charles River, Margate, UK) were randomly allocated to either: (1), Sham (control; partial laminectomy but no DC crush injury); (2), DC crush injury+vehicle (partial laminectomy followed by DC crush injury and injection of vehicle); (3), DC crush injury+100 mg/kg AZD1236; (4), DC crush injury+200 mg/kg AZD1236; and (5), DC crush injury+300 mg/kg AZD1236. For intrathecal (it) delivery of AZD1236, adult male C57BL6 mice (25-30 g) (Charles River, Margate, UK) were randomly allocated to either: (1), Sham (control; partial laminectomy but no DC crush injury); (2), DC crush injury+vehicle (partial laminectomy followed by DC crush injury and injection of vehicle); (3), DC crush injury+2.5 mg/kg AZD1236; (4), DC crush injury+5 mg/kg AZD1236; and (5), DC crush injury+10 mg/kg AZD1236. For intrathecal delivery an indwelling atlanto-occipital intrathecal catheter was inserted into the intrathecal space, as described previously (F. A. Oladosu, B. P. Ciszek, S. C. O'Buckley, A. G. Nackley, Novel intrathecal and subcutaneous catheter delivery systems in the mouse. J Neurosci Methods 264, 119-128 (2016)). Briefly, with mice in the sternal recumbency a small incision was made at the nape of the neck followed by detachment of the muscles on either side of the external occipital crest to expose the A-O membrane. The membrane was incised and a 6 cm Alzet mouse intrathecal catheter (Alzet, Cupertino, Calif., USA) and polyurethane segments were gently guided 2.5 cm into the intrathecal space. The catheter was secured using 4-0 silk sutures (Oasis Medical, IL) and the exposed end of the catheter was sealed off with a stainless-steel plug and affixed to the upper back. Animals were injected immediately with vehicle or AZD1236 followed by a 10 μl PBS catheter flush. Injections were repeated every twice daily for the first 3 days after injury and drugs and vehicle reagents were delivered over 1 min time period using a Hamilton microlitre syringe (Hamilton Co, USA). Where specified intact animals with no surgical procedures were also used. All lesions were administered under 5% isofluorane induced inhalation anaesthesia, with 1.51/min O2. Pre- and post-injury analgesia was also provided.
DC crush injury was administered bilaterally at the T8 vertebral level as described previously (S. Surey, M. Berry, A. Logan, R. Bicknell, Z. Ahmed, Differential cavitation, angiogenesis and wound-healing responses in injured mouse and rat spinal cords. Neuroscience 275, 62-80 (2014); M. L. Read, S. Mir, R. Spice, R. J. Seabright, E. L. Suggate, Z. Ahmed, M. Berry, A. Logan, Profiling RNA interference (RNAi)-mediated toxicity in neural cultures for effective short interfering RNA design. J Gene Med 11, 523-534 (2009)). Briefly, calibrated watchmaker's forceps were separated by 0.5 mm and inserted through the dorsal cord meninges to a depth of 0.45 mm in mice and separated by 1 mm and inserted through the dorsal cord meninges to a depth of 1.0 mm in rats, and the DC were crushed for 3 seconds. AZD1236 or vehicle was administered twice daily by oral gavage or intrathecally, either immediately for the first 3 days or 24 hours after injury and treating twice daily until day 4 (i.e. 3 days of AZD1236 dosing). All experiments were performed with n=6 mice/group and repeated on at least 2-3 independent occasions (total=12-18 animals/group/test).
The lesion site+3 mm either side for mice and the lesion site+5 mm either side for the rat DC model were dissected out and the water content of the spinal cord (as a measure of oedema) was determined at 3 days after DC and CC SCI, as described previously (S. Li, C. H. Tator, Effects of MK801 on evoked potentials, spinal cord blood flow and cord edema in acute spinal cord injury in rats. Spinal Cord 37, 820-832 (1999)). Spinal cords containing the lesion site were weighed on aluminium foil, dried at 105° C. for 24 hr, and re-weighed. […]

[2] = tested on: J774A.1, RAW 264.7 and primary mouse peritoneal macrophages; test: Transwell migration assay of macrophages; format: cell-based; details: J774A.1 and RAW 264.7, 3 h
Method: J774A.1 cells (#TIB-67; ATCC, Middlesex, UK) were cultured in DMEM supplemented with 10% FBS, 100 U/ml penicillin, 100 μg/ml streptomycin, and 0.25 μg amphotericin B. Cells were seeded in T75 tissue-culture flasks and maintained at 37° C. and 5% CO2. RAW 264.7 cells (#TIB-71; ATCC) were maintained in DMEM containing 10% FBS.
Resident peritoneal cells were harvested from adult C57BL/6 mice (6-8 weeks old) by injection of 10 ml of PBS using a 21G needle into the peritoneal cavity and harvesting the cell suspension, as described previously (Rosas M, Davies L C, Giles P J, Liao C T, Kharfan B, Stone T C, et aL. The transcription factor Gata6 links tissue macrophage phenotype and proliferative renewal. Science 2014; 344(6184): 645-8). Peritoneal cells were then centrifuged at 100×g for 10 min and the cell pellet resuspended in DMEM/F12 medium. Cell were incubated at 37° C., for 2 h and non-adherent cells were removed by gentle washing. Cells were expanded in DMEM/F12 medium containing 10% FBS. For migration assays, cells were grown in RPMI containing 0.02% BSA for 24 h to obtain quiescent cells prior to using them in Transwell migration assays as described below.
Migration assays were performed with J774A.1, RAW 264.7 and primary mouse peritoneal macrophages in 6.5 mm Transwell plates (ThermoFisher) with 8 μm pore inserts, as described previously (Green et al., 2012). Briefly, inserts were coated with rat tail type I collagen and 1×10^5 cells (J774A.1, RAW 264.7 or primary mouse macrophages) were resuspended in chemotaxis buffer (RMPI 1640 plus 0.02% BSA, (termed RPMI from herein)) and added to the upper chamber and incubated with migration medium, with or without known chemotactic factors MCP-1 (100 ng/ml) and PMA (100 nM), or AZD1236, GM6001, SD2590 and MMP-9 Inhibitor I (all used at 1, 10, 100, 1000 ng/ml) added to the lower chamber. Cells were allowed to migrate through the insert membrane for 3 h at 37° C., before washing inserts with PBS. Non-migrating cells remaining on the upper surface were removed with a cotton swab whilst the migrated cells on the insert were fixed, stained with Diff-Quick (#26096, Electron Microscopy Science, Hatfield, UK), and mounted on glass slides. Migration was measured visually by counting using a light microscope at 40× magnification. The mean number of cells in 10 random fields were calculated for each treatment by an experimenter masked to the treatment conditions. A migration index was calculated by dividing the number of cells that migrated in response to the chemokine by the number of cells that migrated randomly (RPMI medium) with a reference index>1, indicating chemotaxis.

Row | Structure (SMILES) | spinal cord water content, comparison of MMP inhibitors (FIG. 4) [1] | macrophage migration (migration index, chemotaxis) [2] | intrathecal dose required for same reduction of water content, as fraction of oral dose ([1]; intrathecal vs oral) | spinal cord water content ([1]; intrathecal, 5.0 and 10.0 mg/kg) | SCI-induced water content, 24-h delayed treatment ([1]; optimal doses, 24 h delay vs immediate) | spinal cord water content ([1]; oral, twice daily, 200 mg/kg and 300 mg/kg)
1 | CNC(=O)[C@H](Cc1c[nH]c2ccccc12)NC(=O)[C@@H](CC(=O)NO)CC(C)C [GM6001, (2R)—N^4-Hydroxy-N^1-[(1S)-1-(1H-indol-3-ylmethyl)-2-(methylamino)-2-oxoethyl]-2-(2-methylpropyl)butanediamide, reference compound] | significantly reduced spinal cord water content | not affected |  |  |  | 
2 | COCCN1CCC(C(=O)NO)(S(=O)(=O)c2ccc(Oc3ccc(OC(F)(F)F)cc3)cc2)CC1 [SD2590, N-Hydroxy-1-(2-methoxyethyl)-4-[4-[4-(trifluoromethoxy)phenoxy]phenyl]sulfonyl]-4-piperidinecarboxamide hydrochloride, reference compound] | significantly reduced spinal cord water content | not affected |  |  |  | 
3 | CCN(CC)Cc1cc(C)c(N(Cc2ccccc2)S(=O)(=O)c2ccc(OC)cc2)c(C(=O)NO)c1 [MMP-9 Inhibitor I, reference compound] | significantly reduced spinal cord water content | not affected |  |  |  | 
4 | C[C@]1(CS(=O)(=O)N2CC=C(C#Cc3cnc(C4CC4)nc3)CC2)NC(=O)NC1=O [AZD1236] | far more effective than any of these compounds; also recorded: almost completely ablating DC injury-induced rises | no effect on chemotaxis | 1/40 | reduced to sham-treated levels | equally as effective as immediate delivery | reducing to sham-treated levels
